≈ marks a conversion by molar mass, not a printed value. Where “and” joins values, the source holds several entries; their conditions need not be identical. Equal entries are not always repeated.
Key:
Penicillium strains [1] = test: MIC testing (CLSI M38-A2); type: cell-based, Penicillium spp.
Penicillium strains [2] = test: MFC determination; type: cell-based, Penicillium spp.
C. albicans SC5314 = test: In vitro activity (MFC) against the infecting strain, Example 18; type: cell-based, Candida albicans; settings: Candida albicans, read-out: MFC
[3] = system: individual Aspergillus spp. (Table 12, species not named); test: MFC determination, Table 12; type: cell-based; settings: Aspergillus sp. of Table 12
Candida albicans [4] = test: MFC determination; type: cell-based
Fusarium strains = test: MFC determination, Table 17; type: cell-based, Fusarium spp.; settings: Fusarium strains (Table 17)
A. fumigatus AF91 [5] = test: In vitro activity (MFC) against the infecting strain, Example 17; type: cell-based, Aspergillus fumigatus; settings: Aspergillus fumigatus, read-out: MFC
Procedure: Minimum Fungicidal Concentration: MFC determinations were performed according to the modifications previously described by Canton et al., Diagn. Microbiol. Infect. Dis., 45:203-206, 2003, and Ghannoum and Isham, Infectious Diseases in Clinical Practice, 15(4):250-253, 2007.
Specifically, the total contents of each clear well from the MIC assay were subcultured onto potato dextrose agar. To avoid antifungal carryover, the aliquots were allowed to soak into the agar and then were streaked for isolation once dry, thus removing the cells from the drug source. Fungicidal activity is defined as ≥99.9% reduction in the number of colony forming units (CFU)/ml from the starting inoculum count, while fungistatic activity is defined as <99.9% reduction. […] MIC and MFC values are considered to be equivalent if they are within 2 dilutions.

C. parapsilosis [6] = test: MFC determination; type: cell-based
[7] = system: all Aspergillus strains tested; test: MFC determination, summary; type: cell-based
[8] = system: Aspergillus fumigatus AF91; test: Disseminated Aspergillosis in immunocompromised murine model (CD-1 mice): tissue fungal burden; settings: 7 days
C. parapsilosis [9] = test: MIC testing (CLSI M27-A3); type: cell-based; set-up: MIC: unit not given beside the values
A. fumigatus AF91 [10] = test: In vitro activity (MIC) against the infecting strain, Example 17; type: cell-based, Aspergillus fumigatus; settings: Aspergillus fumigatus, read-out: MIC
Procedure: Minimum Inhibitory Concentration: MIC testing was performed according to the Clinical and Laboratory Standards Institute (CLSI) M27-A3 and M38-A2 standards for the susceptibility testing of yeasts and filamentous fungi, respectively (Cryptococcus isolates were incubated for 72 h). For yeast strains, the incubation temperature and time were 35° C. and 24-48 h, respectively, and the inoculum size was 0.5-2.5×10^3 CFU/ml. For filamentous strains, the inoculum size was 0.4-5×10^4 CFU/ml, and the incubation time was strain and drug specific. RPMI 1640 was the test medium throughout, with the exception of the use of YNB for Cryptococcus. Inhibition endpoints for compound 1A were recorded at 50% and 100% after both 24 h and 48 h incubation; caspofungin results against Aspergillus strains were read as minimum effective concentrations (MEC), the lowest concentration that leads to small, rounded, compact growth as compared to the confluent growth of the control.

C. krusei strains = test: MIC testing (CLSI M27-A3); type: cell-based
[11] = system: individual Aspergillus spp. (Table 15, species not named); test: MFC determination, Table 15; type: cell-based; settings: Aspergillus sp. of Table 15
Cr. neoformans strains = test: MFC determination; type: cell-based, Cryptococcus neoformans; settings: Cr. neoformans
[12] = system: individual Aspergillus spp. (Table 15, species not named); test: MIC testing (CLSI M38-A2), Table 15; type: cell-based; settings: Aspergillus sp. of Table 15, caspofungin read as MEC
[13] = system: individual Aspergillus spp. (Table 13, species not given); test: MIC testing (CLSI M38-A2), Table 13; type: cell-based; settings: Aspergillus sp. of Table 13, caspofungin read as MEC
C. tropicalis = test: MFC determination; type: cell-based
Candida albicans [14] = test: MIC testing (CLSI M27-A3); type: cell-based; set-up: MIC: unit not given beside the values; settings: for MIC Range: in µg/mL
[15] = system: all Aspergillus strains tested; test: MIC testing (CLSI M38-A2), summary; type: cell-based; settings: caspofungin read as MEC
[16] = system: individual Aspergillus spp. (Table 12, species not named); test: MIC testing (CLSI M38-A2), Table 12; type: cell-based; settings: Aspergillus sp. of Table 12, caspofungin read as MEC
[17] = system: Fusarium strains (Table 18); test: MIC testing (CLSI M38-A2), Table 18; type: cell-based, Fusarium spp.
[18] = individual C. albicans strain with elevated MICs to non-polyene comparators (Table 22)
[19] = C. parapsilosis strains, in µg/mL
[20] = individual C. parapsilosis strain with elevated MICs to non-polyene comparators (Table 22)
[21] = Experiment II, 0.5 mg/kg i.v. daily
[22] = Experiment II, 1.0 mg/kg i.v. daily

Compound: C[C@@H]1[C@H](O)[C@@H](C)/C=C/C=C/C=C/C=C/C=C/C=C/C=C/[C@H](O[C@@H]2O[C@H](C)[C@@H](O)[C@H](N)[C@@H]2O)C[C@@H]2O[C@](O)(C[C@@H](O)[C@H](O)CC[C@@H](O)C[C@@H](O)C[C@@H](O)CC(=O)O[C@H]1C)C[C@H](O)[C@H]2C [Compound 1A]
- MIC Range (Penicillium strains [1]; Penicillium strains, in µg/mL): 0.5-2
- MIC50 (Penicillium strains [1]; Penicillium, inhibits 50% of strains): 2 µg/mL (≈ 2.24 µM)
- MIC90 (Penicillium strains [1]; Penicillium, inhibits 90% of strains): 2 µg/mL (≈ 2.24 µM)
- MFC50 (Penicillium strains [2]; kills 50% of strains): 2 µg/mL (≈ 2.24 µM)
- MFC90 (Penicillium strains [2]; kills 90% of strains): 4 µg/mL (≈ 4.47 µM)
- MFC (C. albicans SC5314): 0.5 µg/mL (≈ 0.559 µM)
- MFC50 ([3]; kills 50% of strains): 4 µg/mL (≈ 4.47 µM)
- MFC90 ([3]; kills 90% of strains): > 4 µg/mL
- MFC Range (Candida albicans [4]; Fluconazole-susceptible C. albicans n = 13, in µg/mL): 0.125-1
- MFC50 (Candida albicans [4]; Fluconazole-susceptible C. albicans n = 13, kills 50% of strains): 0.5 µg/mL (≈ 0.559 µM)
- MFC90 (Candida albicans [4]; Fluconazole-susceptible C. albicans n = 13, kills 90% of strains): 1 µg/mL (≈ 1.12 µM)
- MFC (Candida albicans [4]; [18]): 1 (5×) and >4 and 2
- MFC Range (Fusarium strains; in µg/mL): 1-4
- MFC50 (Fusarium strains; kills 50% of strains): 2 µg/mL (≈ 2.24 µM)
- MFC90 (Fusarium strains; kills 90% of strains): > 4 µg/mL
- MFC (A. fumigatus AF91 [5]): 2 µg/mL (≈ 2.24 µM)
- MFC Range (C. parapsilosis [6]; [19]): 0.25-2
- MFC50 (C. parapsilosis [6]; C. parapsilosis, kills 50% of strains): 0.5 µg/mL (≈ 0.559 µM)
- MFC90 (C. parapsilosis [6]; C. parapsilosis, kills 90% of strains): 2 µg/mL (≈ 2.24 µM)
- MFC (C. parapsilosis [6]; [20]): 0.5 (2×) and 1
- MFC50 ([7]; kills 50% of strains): 4 µg/mL (≈ 4.47 µM)
- MFC90 ([7]; kills 90% of strains): > 4 µg/mL
- Kidney tissue fungal burden, Mean log CFUs ± the standard deviation ([8]; Experiment I, 0.5 mg/kg i.v.): 3.16 ± 0.40 log CFUs
- Lung tissue fungal burden, Mean log CFUs ± the standard deviation ([8]; Experiment I, 0.5 mg/kg i.v.): 3.46 ± 0.49 log CFUs
- Kidney tissue fungal burden, Mean log CFUs ± the standard deviation ([8]; Experiment I, 1.0 mg/kg i.v.): 0.51 ± 1.02 log CFUs
- Lung tissue fungal burden, Mean log CFUs ± the standard deviation ([8]; Experiment I, 1.0 mg/kg i.v.): 0.55 ± 1.10 log CFUs
- Kidney tissue fungal burden, Mean log CFUs ± the standard deviation [8, 21]: 2.93 ± 0.73 log CFUs
- Lung tissue fungal burden, Mean log CFUs ± the standard deviation [8, 21]: 2.75 ± 0.93 log CFUs
- Kidney tissue fungal burden, Mean log CFUs ± the standard deviation [8, 22]: 1.16 ± 1.10 log CFUs
- Lung tissue fungal burden, Mean log CFUs ± the standard deviation [8, 22]: 1.17 ± 1.15 log CFUs
- MIC Range (C. parapsilosis [9]; [19]): 0.25-2
- MIC50 (C. parapsilosis [9]; C. parapsilosis, inhibits 50% of strains): 0.25 µg/mL (≈ 0.28 µM)
- MIC90 (C. parapsilosis [9]; C. parapsilosis, inhibits 90% of strains): 2 µg/mL (≈ 2.24 µM)
- MIC (C. parapsilosis [9]; [20]): 0.5 (2×) and 1
- MIC (A. fumigatus AF91 [10]): 2 µg/mL (≈ 2.24 µM)
- MIC Range (C. krusei strains; C. krusei strains, in µg/mL): 0.5-2
- MIC50 (C. krusei strains; C. krusei, inhibits 50% of strains): 1 µg/mL (≈ 1.12 µM)
- MIC90 (C. krusei strains; C. krusei, inhibits 90% of strains): 2 µg/mL (≈ 2.24 µM)
- MIC (C. krusei strains; individual C. krusei strain with elevated MICs to non-polyene comparators (Table 22)): 0.5 µg/mL (≈ 0.559 µM)
- MFC50 ([11]; kills 50% of strains): > 4 µg/mL
- MFC90 ([11]; kills 90% of strains): > 4 µg/mL
- MFC50 (Cr. neoformans strains; kills 50% of strains): 1 µg/mL (≈ 1.12 µM)
- MFC90 (Cr. neoformans strains; kills 90% of strains): > 4 µg/mL
- MIC Range ([12]; in µg/mL): 0.5-4
- MIC50 ([12]; inhibits 50% of strains): 2 µg/mL (≈ 2.24 µM)
- MIC90 ([12]; inhibits 90% of strains): 4 µg/mL (≈ 4.47 µM)
- MIC Range ([13]; in µg/mL): 1-2
- MIC50 ([13]; inhibits 50% of strains): 1 µg/mL (≈ 1.12 µM)
- MIC90 ([13]; inhibits 90% of strains): 2 µg/mL (≈ 2.24 µM)
- MFC Range (C. tropicalis; C. tropicalis strains, in µg/mL): 0.5-16
- MFC50 (C. tropicalis; C. tropicalis, kills 50% of strains): 1 µg/mL (≈ 1.12 µM)
- MFC90 (C. tropicalis; C. tropicalis, kills 90% of strains): 8 µg/mL (≈ 8.95 µM)
- MIC Range (Candida albicans [14]; Fluconazole-resistant C. albicans n = 7): 1-2
- MIC Range (Candida albicans [14]; Fluconazole-susceptible C. albicans n = 13): 0.125-1
- MIC50 (Candida albicans [14]; Fluconazole-susceptible C. albicans n = 13, inhibits 50% of strains): 0.5 µg/mL (≈ 0.559 µM)
- MIC90 (Candida albicans [14]; Fluconazole-susceptible C. albicans n = 13, inhibits 90% of strains): 1 µg/mL (≈ 1.12 µM)
- MIC (Candida albicans [14]; [18]): 1 (6×) and 2
- MIC Range ([15]; in µg/mL): 0.5-4
- MIC50 ([15]; inhibits 50% of strains): 2 µg/mL (≈ 2.24 µM)
- MIC90 ([15]; inhibits 90% of strains): 2 µg/mL (≈ 2.24 µM)
- MIC Range ([16]; in µg/mL): 1-4
- MIC50 ([16]; inhibits 50% of strains): 2 µg/mL (≈ 2.24 µM)
- MIC90 ([16]; inhibits 90% of strains): 2 µg/mL (≈ 2.24 µM)
- MIC Range ([17]; in µg/mL): 1-4
- MIC50 ([17]; inhibits 50% of strains): 2 µg/mL (≈ 2.24 µM)
- MIC90 ([17]; inhibits 90% of strains): 4 µg/mL (≈ 4.47 µM)

From patent US20230138395A1, “PHARMACEUTICAL COMPOSITIONS OF A THERAPEUTIC POLYENE MACROLIDE AND METHODS OF THEIR USE” (priority 2020, published 2023)
